Common to all, as to assay: biochemical
Parameters in all cases: DiscoveRx KINOMEscan active site-directed competition binding; percent of control kinase bound to immobilised ligand

The target in assay [1] is T1, ABL1(Y253F)-phosphorylated (Homo sapiens, UniProt P00519, Y253F).
T1 construct: phosphorylated

The next assay deals with T2, ACVR1B (Homo sapiens, UniProt P36896).
T2 sequence (P36896 1-505): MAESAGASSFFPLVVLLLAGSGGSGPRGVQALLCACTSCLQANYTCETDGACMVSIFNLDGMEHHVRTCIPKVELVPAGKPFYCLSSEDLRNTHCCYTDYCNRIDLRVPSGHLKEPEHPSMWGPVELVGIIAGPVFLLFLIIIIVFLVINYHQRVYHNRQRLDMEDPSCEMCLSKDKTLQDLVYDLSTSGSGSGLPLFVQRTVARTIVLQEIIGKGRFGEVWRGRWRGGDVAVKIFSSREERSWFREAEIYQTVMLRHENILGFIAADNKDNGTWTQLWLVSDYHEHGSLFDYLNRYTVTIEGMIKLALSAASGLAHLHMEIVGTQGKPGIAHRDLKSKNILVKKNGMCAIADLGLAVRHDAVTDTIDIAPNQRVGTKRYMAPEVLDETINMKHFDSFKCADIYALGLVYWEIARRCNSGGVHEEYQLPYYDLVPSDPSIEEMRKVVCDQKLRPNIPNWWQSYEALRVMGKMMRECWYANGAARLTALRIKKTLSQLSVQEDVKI

A further assay deals with CDKL1 (Homo sapiens, UniProt Q00532).
The next assay deals with T3, ERK4 (Homo sapiens, UniProt P31152).
T3 construct: gene MAPK4

Another assay concerns the target T4, MARK4 (Homo sapiens, UniProt Q96L34).
T4 sequence (Q96L34 1-752): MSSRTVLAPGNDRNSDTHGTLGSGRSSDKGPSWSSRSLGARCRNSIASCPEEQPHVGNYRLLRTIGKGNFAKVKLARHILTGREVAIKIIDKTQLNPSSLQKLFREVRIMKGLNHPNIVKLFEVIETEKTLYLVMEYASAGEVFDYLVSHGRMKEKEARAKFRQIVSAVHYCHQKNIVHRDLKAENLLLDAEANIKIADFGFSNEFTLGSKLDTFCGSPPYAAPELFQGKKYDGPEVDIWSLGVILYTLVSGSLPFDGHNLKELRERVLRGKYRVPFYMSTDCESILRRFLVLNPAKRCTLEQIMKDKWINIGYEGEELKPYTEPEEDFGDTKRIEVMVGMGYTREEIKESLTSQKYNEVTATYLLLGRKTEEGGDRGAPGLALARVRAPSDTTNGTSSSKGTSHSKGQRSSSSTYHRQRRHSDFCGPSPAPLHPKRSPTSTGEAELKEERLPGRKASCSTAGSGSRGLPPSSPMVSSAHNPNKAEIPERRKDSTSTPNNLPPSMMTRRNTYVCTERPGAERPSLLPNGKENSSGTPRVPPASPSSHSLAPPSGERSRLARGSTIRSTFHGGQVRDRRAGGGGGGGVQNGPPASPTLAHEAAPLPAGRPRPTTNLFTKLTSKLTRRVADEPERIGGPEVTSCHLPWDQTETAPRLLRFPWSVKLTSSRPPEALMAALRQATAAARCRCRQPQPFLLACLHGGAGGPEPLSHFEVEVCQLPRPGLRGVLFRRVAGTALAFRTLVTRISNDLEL

A further assay addresses T5, ULK1 (Homo sapiens, UniProt O75385).
T5 sequence (O75385 1-1050): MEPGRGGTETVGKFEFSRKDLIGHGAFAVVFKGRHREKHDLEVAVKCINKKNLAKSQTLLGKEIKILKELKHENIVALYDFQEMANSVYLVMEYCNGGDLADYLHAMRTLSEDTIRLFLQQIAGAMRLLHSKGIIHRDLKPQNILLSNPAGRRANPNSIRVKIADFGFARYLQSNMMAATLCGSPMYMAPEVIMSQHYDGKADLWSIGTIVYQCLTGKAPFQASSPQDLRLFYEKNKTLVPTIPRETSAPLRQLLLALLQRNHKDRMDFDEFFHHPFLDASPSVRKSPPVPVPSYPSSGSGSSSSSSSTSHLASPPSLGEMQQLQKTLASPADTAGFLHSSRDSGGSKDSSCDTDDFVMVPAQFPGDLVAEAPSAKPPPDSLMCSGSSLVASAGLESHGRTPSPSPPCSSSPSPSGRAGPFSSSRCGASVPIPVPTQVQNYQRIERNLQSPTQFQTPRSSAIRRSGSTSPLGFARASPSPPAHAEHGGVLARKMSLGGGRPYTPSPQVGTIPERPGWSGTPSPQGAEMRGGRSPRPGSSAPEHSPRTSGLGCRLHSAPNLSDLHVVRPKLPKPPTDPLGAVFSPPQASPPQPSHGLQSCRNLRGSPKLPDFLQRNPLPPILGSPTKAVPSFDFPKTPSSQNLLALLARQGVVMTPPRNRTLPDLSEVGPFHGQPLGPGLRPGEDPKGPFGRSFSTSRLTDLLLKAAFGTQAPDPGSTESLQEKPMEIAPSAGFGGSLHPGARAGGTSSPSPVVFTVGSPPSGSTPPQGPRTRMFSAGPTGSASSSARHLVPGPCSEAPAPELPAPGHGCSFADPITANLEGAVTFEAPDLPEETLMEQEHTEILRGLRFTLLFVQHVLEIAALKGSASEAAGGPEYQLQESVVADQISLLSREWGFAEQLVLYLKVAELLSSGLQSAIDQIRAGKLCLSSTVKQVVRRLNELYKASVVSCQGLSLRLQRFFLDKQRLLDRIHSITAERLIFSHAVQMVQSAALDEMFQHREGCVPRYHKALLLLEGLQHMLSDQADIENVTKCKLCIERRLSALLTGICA

The mark [2] stands for this setting: read-out: Niraparib (MK-4827) / %Ctrl @ 10000nM.
Setting [3] is: read-out: Olaparib / %Ctrl @ 10000nM.
The mark [4] stands for this setting: read-out: Rucaparib / %Ctrl @ 10000nM, binding competition, % of control.
Where [5] appears, read: read-out: Talazoparib (BMN 673) / %Ctrl @ 10000nM.

Like-named read-outs stand apart in the source and are kept apart here.

T3 sequence (P31152 whole entry): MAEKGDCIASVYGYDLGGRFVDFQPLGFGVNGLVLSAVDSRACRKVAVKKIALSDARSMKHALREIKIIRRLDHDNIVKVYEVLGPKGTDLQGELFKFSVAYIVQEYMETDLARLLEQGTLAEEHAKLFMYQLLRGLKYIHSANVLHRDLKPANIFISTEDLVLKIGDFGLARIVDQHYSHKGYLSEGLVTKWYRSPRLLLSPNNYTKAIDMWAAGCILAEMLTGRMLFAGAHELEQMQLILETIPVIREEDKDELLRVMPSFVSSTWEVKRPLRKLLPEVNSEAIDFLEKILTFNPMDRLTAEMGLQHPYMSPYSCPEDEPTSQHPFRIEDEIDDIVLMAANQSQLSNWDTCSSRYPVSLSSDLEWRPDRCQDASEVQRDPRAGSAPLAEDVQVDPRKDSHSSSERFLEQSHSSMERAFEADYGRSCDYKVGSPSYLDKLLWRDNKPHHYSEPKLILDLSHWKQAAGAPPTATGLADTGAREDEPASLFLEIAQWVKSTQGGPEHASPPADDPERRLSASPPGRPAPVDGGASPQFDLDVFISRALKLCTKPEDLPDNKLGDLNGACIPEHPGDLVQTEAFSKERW
CDKL1, sequence (Q00532 whole entry): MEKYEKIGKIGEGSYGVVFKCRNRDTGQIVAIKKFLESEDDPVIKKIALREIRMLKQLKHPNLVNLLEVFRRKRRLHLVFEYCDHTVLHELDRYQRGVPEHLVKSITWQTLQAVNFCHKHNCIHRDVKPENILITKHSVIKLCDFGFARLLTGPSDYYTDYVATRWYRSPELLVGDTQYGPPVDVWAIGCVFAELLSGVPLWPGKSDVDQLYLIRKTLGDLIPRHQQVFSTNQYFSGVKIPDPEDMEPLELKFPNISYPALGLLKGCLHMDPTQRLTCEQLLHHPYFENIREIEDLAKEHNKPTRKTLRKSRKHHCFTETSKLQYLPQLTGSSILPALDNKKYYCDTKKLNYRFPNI

For `NC(=O)c1cccc2cn(-c3ccc([C@@H]4CCCNC4)cc3)nc12` [Niraparib], the percent of control binding at 10 µM in assay [1] (setting [2]) was 57%; on ACVR1B (setting [2]), 95%; on CDKL1 (setting [2]), 94%; on ERK4 (setting [2]), 98%; at MARK4 (setting [2]), 98%; at ULK1 (setting [2]) it was 100%.

Regarding `O=C(c1cc(Cc2n[nH]c(=O)c3ccccc23)ccc1F)N1CCN(C(=O)C2CC2)CC1` [Olaparib], the percent of control binding at 10 µM stood at 79% in assay [1] (setting [3]); 100% on ACVR1B (setting [3]); 99% at CDKL1 (setting [3]); 100% on ERK4 (setting [3]); 88% on MARK4 (setting [3]); 83% on ULK1 (setting [3]).

As to `CNCc1ccc(-c2[nH]c3cc(F)cc4c3c2CCNC4=O)cc1` [Rucaparib], the percent of control binding at 10 µM in assay [1] (setting [4]) worked out at 69%; at ACVR1B (setting [4]), 89%; at CDKL1 (setting [4]) it was 84%; at ERK4 (setting [4]) it was 97%; at MARK4 (setting [4]), 86%; at ULK1 (setting [4]), 64%.

Regarding `Cn1ncnc1[C@H]1c2n[nH]c(=O)c3cc(F)cc(c23)N[C@@H]1c1ccc(F)cc1` [Talazoparib], the percent of control binding at 10 µM was found to be 100% in assay [1] (setting [5]); 77% at ACVR1B (setting [5]); 49% on CDKL1 (setting [5]); 100% on ERK4 (setting [5]); 100% at MARK4 (setting [5]); 94% on ULK1 (setting [5]).
